Values quoted from earlier work as cited in patent US20230058142A1, “LIQUID PHARMACEUTICAL COMPOSITION COMPRISING CYTISINE” (priority 2019, published 2023).

Target: nicotinic α4β2 receptors (Homo sapiens, UniProt P17787+P43681)
Conditions: read-out: Ki, affinity for nicotinic α4β2 receptors

nicotinic α4β2 receptors, sequence (P43681 29-627 limits assumed): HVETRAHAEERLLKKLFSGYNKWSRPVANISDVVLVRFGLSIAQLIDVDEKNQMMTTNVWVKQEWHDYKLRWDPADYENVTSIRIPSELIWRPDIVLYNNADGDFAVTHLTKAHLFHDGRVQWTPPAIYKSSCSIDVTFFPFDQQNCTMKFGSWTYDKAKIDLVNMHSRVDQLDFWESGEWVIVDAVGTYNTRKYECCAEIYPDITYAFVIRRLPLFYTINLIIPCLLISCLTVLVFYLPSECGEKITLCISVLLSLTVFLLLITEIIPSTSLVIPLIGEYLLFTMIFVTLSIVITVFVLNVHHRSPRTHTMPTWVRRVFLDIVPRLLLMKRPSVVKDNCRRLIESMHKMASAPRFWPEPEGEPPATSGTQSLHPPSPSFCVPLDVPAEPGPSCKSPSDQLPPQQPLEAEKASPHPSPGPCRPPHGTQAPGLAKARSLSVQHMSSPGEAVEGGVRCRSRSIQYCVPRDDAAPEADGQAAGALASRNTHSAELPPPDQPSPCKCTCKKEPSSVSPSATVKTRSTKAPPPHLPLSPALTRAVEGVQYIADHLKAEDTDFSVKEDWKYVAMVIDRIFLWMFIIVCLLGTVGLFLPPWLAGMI
nicotinic α4β2 receptors, sequence (P17787 26-502): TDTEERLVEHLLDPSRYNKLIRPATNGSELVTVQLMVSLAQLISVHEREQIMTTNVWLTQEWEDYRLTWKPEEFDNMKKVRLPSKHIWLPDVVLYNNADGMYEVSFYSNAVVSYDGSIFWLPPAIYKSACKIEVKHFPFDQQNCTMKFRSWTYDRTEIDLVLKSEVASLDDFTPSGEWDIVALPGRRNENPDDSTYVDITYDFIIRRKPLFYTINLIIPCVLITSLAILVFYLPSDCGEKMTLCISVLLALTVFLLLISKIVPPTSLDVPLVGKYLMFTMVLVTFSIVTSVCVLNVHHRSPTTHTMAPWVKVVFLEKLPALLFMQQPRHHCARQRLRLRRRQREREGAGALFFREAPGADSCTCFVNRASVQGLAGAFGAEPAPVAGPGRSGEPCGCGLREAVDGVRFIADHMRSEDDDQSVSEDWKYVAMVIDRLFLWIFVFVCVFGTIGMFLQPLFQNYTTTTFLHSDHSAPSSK

SMILES: O=c1cccc2n1C[C@@H]1CNC[C@H]2C1 [Cytisine, (1R-cis)-1,2,3,4,5,6-hexahydro-1,5-methano-8H-pyrido[1,2-a][1,5]diazocin-8-one]
- Ki: 450 nM
